We go through three compounds from PMC11597478, “Kinin B1- and B2-Receptor Subtypes Contract Isolated Bovine Ciliary Muscle: Their Role in Ocular Lens Function and Intraocular Pressure Reduction” (Pharmaceuticals, 2024).

Like-named read-outs stand apart in the source and are kept apart here. Peptide text beside a SMILES is read from it.

One assay deals with rat ileum. To be noted: B1-receptor in rat ileum, contraction; ref [25]; read-out: Functional potency, RI, HP Site; cited from earlier work. From the text:
Table 2 Ability of BK and Des-Arg^9-BK to Contract Various Tissues of Different Species or to Mobilize Intracellular Ca^2+ in human Ocular Cells. | column: RI || In the current studies, both BK and Des-Arg^9-BK contracted the BCM in a biphasic fashion, indicating the involvement of both B1 and B2 receptors in the smooth muscle contraction process. Other agonist peptides related to BK also elicited similar profiles of contractility, thereby substantiating the effects of BK and Des-Arg^9-BK in this specific tissue. Furthermore, the role of both kinin receptor subtypes being responsible for contracting BCM in vitro was confirmed by sequentially recording the functional responses of the tissue in the presence of B1- and B2-receptor antagonists in numerous ...

Another assay concerns rat uterus strips. Particulars: B2-receptor-mediated contraction; ref [1],[2],[3],[18],[20],[23]; read-out: Functional potency, RUT, HP Site; cited from earlier work. An excerpt:
Table 2 Ability of BK and Des-Arg^9-BK to Contract Various Tissues of Different Species or to Mobilize Intracellular Ca^2+ in human Ocular Cells. | column: RUT

The target of assay [1] is cloned B2 receptor. Particulars: ref [1]; cited from earlier work.
For assay [2], the system named is bovine ciliary muscle (BCM) strips. Kind of assay: tissue or blood. The assay is classed as cell-based. Particulars: for share of the maximal contraction accounted for by the first high affinity/potency phase: biphasic C-R curve, BCM strips; for Max. Tension Generated During Contraction: freshly isolated BCM strips, Krebs 37 °C, 1 g load, 7–11 concentrations (0.1 nM–10 µM), mean ± SEM, 3–8 experiments. Here is the method:
The methods utilized in the current studies were adapted from Lograno and Romano [13] and Ohia et al., with some minor modifications. Fresh bovine eyeballs were obtained from a local abattoir (Fisher Ham and Meat Company, Houston, TX, USA) and transported to the laboratory in ice. Whole eyeballs were placed in warm oxygenated Krebs buffer solution for 30 min to ensure equilibration before dissection of the ciliary muscle. Briefly, the anterior segment was dissected out of whole eyeballs after an incision was made at the limbus. The anterior segment containing the cornea, anterior uvea, and lens was then inverted and the lens dislodged with a probe along with the attached vitreous humor. After removal of the vitreous humor and lens, the whole ciliary muscle (comprising both longitudinal and circular portions) was quickly isolated and dissected from the scleral spur and choroid. Muscle strips of 4–5 mm in length were cut and mounted in 25 mL organ baths containing oxygenated Krebs solution at 37 °C using a silk thread linked to an isometric strain gauge under a constant load of 1g tension. The tissues were then allowed to equilibrate for 30 min. Two ciliary muscle strips were prepared from each eyeball and four to eight strips were used for each series of experiments. The composition of the Krebs solution used (mM) was NaCl, 118; KCl, 4.8; CaCl2, 2.5; KH2PO4, 1.2; NaHCO3, 25; MgSO4, 2.0; dextrose, 10 and flurbiprofen, 0.003 (pH 7.4), all purchased from Sigma-Aldrich, St. Louis, MO (USA). […] A robust response was characterized as a single contraction that consistently yielded a tension in the muscle induced by carbachol of 0.15–0.3 gm. […] Tissue strips were then thoroughly rinsed with fresh buffer solution via a series of buffer additions and drainage activities to remove any residual muscarinic agonist, and the preload was readjusted prior to starting the actual study with kininergic ligands. Concentration–response studies employed 7–11 compound concentrations (0.1 nM to 10 µM) and data from multiple experiments were collected.
The contractile responses obtained were expressed as gram tension developed and as percentages of the maximum response of each of the compounds. GraphPad Prism 4.0 Software (San Diego, CA, USA) was then used to construct the concentration–response curves for the kinins and to derive the half-maximal stimulation potencies (EC50) of each phase of the bi-phasic curves and the values tabulated as previously described.

The subject of assay [3] is human trabecular meshwork (hTM) cells. Particulars: [Ca2+]i mobilization, second value of cell; single B2-receptor subtype; ref [2],[8]; read-out: Functional potency, hTM Cells, HP Site; cited from earlier work. From the text: (§1) Table 2 Ability of BK and Des-Arg^9-BK to Contract Various Tissues of Different Species or to Mobilize Intracellular Ca^2+ in human Ocular Cells. | column: hCM/hTM Cells

Assay [4] has as its system human ciliary muscle (hCM) cells. To be noted: [Ca2+]i mobilization, first value of cell; single B2-receptor subtype; ref [2],[8]; read-out: Functional potency, hCM Cells, HP Site; cited from earlier work.
Description: as §1

The target in assay [5] is cloned B2 receptor. To be noted: ref [1]; read-out: Ki, cloned B2 receptor (rabbit); cited from earlier work.
Assay [6] addresses cloned B2 receptor. To be noted: ref [1]; read-out: Ki, cloned B2 receptor (mouse); cited from earlier work.
The subject of a further assay is human umbilical vein. Particulars: B2-receptor-mediated contraction; ref [1],[2],[3],[18],[20],[23]; read-out: Functional potency, HUV, HP Site; cited from earlier work. From the text: Table 2 Ability of BK and Des-Arg^9-BK to Contract Various Tissues of Different Species or to Mobilize Intracellular Ca^2+ in human Ocular Cells. | column: HUV
Assay [7] has as its system bovine aortic endothelial cells. To be noted: ref [21]; cited from earlier work. From the text: Figure 2 Chemical structures of bradykinin and its key analogs and those of the selective B1- and B2-receptor antagonists. The amino acid composition and linkage to form bradykinin and its analogs (linear peptides) are depicted in the upper panel.
Assay [8] relates to recombinant B1 receptors expressed in host cells. To be noted: ref [1]; read-out: binding affinity Ki, recombinant B1 receptor (mouse); cited from earlier work.
Another assay relates to guinea pig trachea. To be noted: tissue contraction, ref [17],[18], cited from earlier work. An excerpt:
Table 2 Ability of BK and Des-Arg^9-BK to Contract Various Tissues of Different Species or to Mobilize Intracellular Ca^2+ in human Ocular Cells. | column: GPT

Another assay has as its system rat whole bladder. Particulars: B2-receptor-mediated contraction; ref [1],[2],[3],[18],[20],[23]; read-out: Functional potency, RWB, HP Site; cited from earlier work. From the text: Table 2 Ability of BK and Des-Arg^9-BK to Contract Various Tissues of Different Species or to Mobilize Intracellular Ca^2+ in human Ocular Cells. | column: RWB
For assay [9], the system named is recombinant B1 receptors expressed in host cells. Particulars: ref [1]; read-out: binding affinity Ki, recombinant B1 receptor (rabbit); cited from earlier work.
Assay [10] shares this test system. To be noted: ref [1]; read-out: binding affinity Ki, recombinant B1 receptor (human); cited from earlier work.
In another assay the test system is human bladder strips. To be noted: second value of cell, undefined kinin receptor, ref [10], read-out: Functional potency, M/H BSTP, HP Site (human); cited from earlier work. From the text:
(§2) Table 2 Ability of BK and Des-Arg^9-BK to Contract Various Tissues of Different Species or to Mobilize Intracellular Ca^2+ in human Ocular Cells. | column: M/H BSTP

Another assay concerns mouse bladder strips. To be noted: first value of cell, undefined kinin receptor, ref [10], read-out: Functional potency, M/H BSTP, HP Site (mouse); cited from earlier work.
Description: as §2

The subject of another assay is guinea pig taenia caeci. Particulars: tissue contraction, ref [17],[18], cited from earlier work. From the text: Table 2 Ability of BK and Des-Arg^9-BK to Contract Various Tissues of Different Species or to Mobilize Intracellular Ca^2+ in human Ocular Cells. | column: GPTC

In the case of `N=C(N)NCCC[C@H](N)C(=O)N1CCC[C@H]1C(=O)N1CCC[C@H]1C(=O)NCC(=O)N[C@@H](Cc1ccccc1)C(=O)N[C@@H](CO)C(=O)N1CCC[C@H]1C(=O)N[C@@H](Cc1ccccc1)C(=O)O` [Des-Arg^9-BK, Des-Arg^9-Bradykinin], the EC50 in the assay with rat ileum is 0.0186 µM; in the assay with rat uterus strips it was greater than 1 µM; in assay [2], 0.03 ± 0.0019 µM; in assay [3], 3.6 µM; in assay [4], 4.2 µM; in the assay on human umbilical vein, greater than 1 µM. Besides, the Ki on cloned B2 receptor [1] is 8.1 µM; at cloned B2 receptor [5], greater than 1 µM; at cloned B2 receptor [6] it was 6.4 µM. Also, in [2], the “share of the maximal contraction accounted for by the first high affinity/potency phase” value is 40–60%. The “Max. Tension Generated During Contraction” value in assay [2] stood at 0.06 ± 0.01 gm tension.
For the compound `CCCC[P+](CCCC)(CCCC)Cc1ccc(NC(=O)[C@H](Cc2ccc3ccccc3c2)NC(=NC2CCCCC2)NC2CCCCC2)cc1.[Cl-]` [WIN-64338], the “effect on cGMP production induced by Des-Arg^9-BK” value in assay [7] is “block the cGMP-producing effects of Des-Arg^9-BK”.
Regarding `N=C(N)NCCC[C@H](NC(=O)[C@H](Cc1ccccc1)NC(=O)[C@@H]1CCCN1C(=O)[C@H](CO)NC(=O)[C@H](Cc1ccccc1)NC(=O)CNC(=O)[C@@H]1CCCN1C(=O)[C@@H]1CCCN1C(=O)[C@@H](N)CCCNC(=N)N)C(=O)O` [BK, Bradykinin] (H-RPPGFSPFR-OH; N-terminus and C-terminus assumed), the EC50 in the assay on rat ileum is 4.89 µM; with rat uterus strips, 0.003 µM; in the assay with guinea pig trachea (high potency site, read-out: Functional potency, GPT, HP Site), 0.02 µM; in the assay with guinea pig trachea (low potency site, read-out: Functional potency, GPT, LP Site), 4 µM; with rat whole bladder, 0.09 µM; in [2], 0.0009 ± 0.0003 µM. In addition, the EC50 is 0.001 µM in [3]; 0.0024 µM in [4]; 5.1 µM with human bladder strips; 1.2 µM in the assay with mouse bladder strips; 0.003 µM with guinea pig taenia caeci (high potency site, read-out: Functional potency, GPTC, HP Site); 1 µM in the assay with guinea pig taenia caeci (low potency site, read-out: Functional potency, GPTC, LP Site). The EC50 in the assay on human umbilical vein is 0.009 µM. The Ki is 0.2 µM in assay [8], 5 µM in assay [9] and 10 µM in assay [10]. The “share of the maximal contraction accounted for by the first high affinity/potency phase” value in assay [2] is 40–60%. The “Max. Tension Generated During Contraction” value in [2] was found to be 0.07 ± 0.01 gm tension.

Usually Ki stands for a measure of affinity in units of concentration, obtained from inhibition or displacement.
